Data as given in patent US10316057B2, “Tandem facial amphiphiles” (WISCONSIN ALUMNI RESEARCH FOUNDATION, priority 2011, dated 2019).
Where “and” joins values, the source holds several entries; their conditions need not be identical. Equal entries are not always repeated. Structures can show the parent of a compound that is named as a salt.

How the values were obtained:
[1] = Critical micelle concentration by solubilization of a hydrophobic fluorescent dye; assay type: physicochemical; conditions: mean ± SD, n = 3
Text: The “Critical Micelle Concentration” (CMC) refers to the concentration of a detergent (e.g., an amphiphile as described herein) in an aqueous solution at which the detergent molecules self-assemble into micelles. Below the CMC, detergents are mostly monomeric; above the CMC, micelle concentration increases linearly with detergent concentration. The CMC is dependent upon many factors and is detergent-specific. The CMC of a detergent can be determined experimentally by measuring the solubilization of a water-insoluble dye or fluorophore while varying the concentration of detergent. A CMC may also be determined by measuring the diminution of the surface tension of an aqueous solution as a function of detergent concentration (CMCs determined by either method correlate with each other). The CMC is determined by extrapolating the plot of solubilization vs. concentration (or surface tension vs. concentration) in the two linear regions above and below the CMC. Where the two lines intersect is the CMC. The CMC can also be determined by the method of Nugebauer, J. M. (1990), Methods in Enzymology, 182:239-253.
TFA-0 forms a hydrogel at concentrations >0.4 wt %, and this compound was not studied further. The other three TFAs are soluble to 5-10 wt % in aqueous media. Critical micelle concentrations (CMC) were determined by monitoring solubilization of a hydrophobic fluorescent dye, […] (Chattopadhyay et al., Anal. Biochem. 1984, 139, 408-412), and the hydrodynamic radii (Rh) of the micelles were determined via dynamic light scattering (DLS). Table 1 compares the data for TFAs with those for DDM, a conventional detergent that is very widely used for MP applications; DDM and the TFAs share maltose as their hydrophilic moieties. CMC values of the three TFAs are smaller than that of DDM, whether CMC is measured in units of mM or wt %.
Analysis of these TFAs for their CMC values provided the data in Table 3.

Bacteriorhodopsin (bR) = target: T1, Bacteriorhodopsin (bR) (Halobacterium salinarum, UniProt P02945); assay: Stabilization assay for bacteriorhodopsin (absorbance at 554 nm); conditions: day 20, room temperature, 0.2 wt % OTG+0.8 wt % TFA
T1 construct: extract bR from the native purple membrane; endogenous in cells
T1 sequence (P02945 14-261 limits assumed): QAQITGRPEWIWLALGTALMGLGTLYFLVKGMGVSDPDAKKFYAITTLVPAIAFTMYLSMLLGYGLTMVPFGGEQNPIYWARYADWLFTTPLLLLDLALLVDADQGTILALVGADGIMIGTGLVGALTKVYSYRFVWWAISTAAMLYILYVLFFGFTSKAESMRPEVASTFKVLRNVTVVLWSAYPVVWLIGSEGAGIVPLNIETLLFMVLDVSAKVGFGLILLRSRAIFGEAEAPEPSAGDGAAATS
Protocol: Bacteriorhodopsin (bR) has been widely employed for assessment of new amphiphiles because this membrane protein is readily available, and stability can be assessed via spectrophotometry (absorbance at 554 nm). Following standard protocols (Bazzacco et al., Biomacromolecules 2009, 10, 3317-3326), 2.0 wt % octyl-β-D-thioglucoside (OTG) was used to extract bR from the native purple membrane. After removal of insoluble debris via ultracentrifugation, the bR solution was diluted with amphiphile-containing solutions to generate samples containing 0.2 wt % OTG+0.8 wt % TFA. A control sample had OTG added to give a total of 1.0 wt %. […] Parallel studies were carried out at different amphiphile concentrations as described in Example 3 below. DDM is not efficient at bR extraction from the native membrane but extracted bR can be stable in the presence of DDM (Milder et al., Biochemistry 1991, 30, 1751-1761).
The general procedure was followed according to the reported protocol of Bazzacco et al. (Biomacromolecules 10, 3317-3326 (2009)). Frozen aliquots of purple membranes containing bR at 184 μM were thawed and solubilized by incubation with octylthioglucoside (OTG) for 24 hr at 4° C. in a dark room. For the solubilization, OTG (CMC=0.28 wt %) was used at 2.0 wt % in 10 mM sodium phosphate (pH 6.9). […] BR stability in each TFA solutions was monitored by measuring absorbance at 554 nm for 20 days.

| Structure (SMILES) | CMC [1] [µM] | CMC (wt %) [1] | bR intact (Bacteriorhodopsin (bR)) [%] |
| --- | --- | --- | --- |
| CCCCCCCCCCCCO[C@@H]1O[C@H](CO)[C@@H](O[C@H]2O[C@H](CO)[C@@H](O)[C@H](O)[C@H]2O)[C@H](O)[C@H]1O [DDM, dodecyl-β-D-maltoside, reference compound] | 170 | 0.009 wt % and 0.0087 wt % | – |
| C[C@H](CCC(=O)N(C)CCCN(C)C(=O)CC[C@@H](C)[C@H]1CC[C@H]2[C@@H]3CC[C@@H]4C[C@H](O[C@@H]5O[C@H](CO)[C@@H](O[C@H]6O[C@H](CO)[C@@H](O)[C@H](O)[C@H]6O)[C@H](O)[C@H]5O)CC[C@]4(C)[C@H]3C[C@H](O[C@@H]3O[C@H](CO)[C@@H](O[C@H]4O[C@H](CO)[C@@H](O)[C@H](O)[C@H]4O)[C@H](O)[C@H]3O)[C@]12C)[C@H]1CC[C@H]2[C@@H]3CC[C@@H]4C[C@H](O[C@@H]5O[C@H](CO)[C@@H](O[C@H]6O[C@H](CO)[C@@H](O)[C@H](O)[C@H]6O)[C@H](O)[C@H]5O)CC[C@]4(C)[C@H]3C[C@H](O[C@@H]3O[C@H](CO)[C@@H](O[C@H]4O[C@H](CO)[C@@H](O)[C@H](O)[C@H]4O)[C@H](O)[C@H]3O)[C@]12C [TFA-1] | 13 ± 1.4 | 0.0028 ± 0.0003 wt % | ~80 |
